Results published in PubChem BioAssay AID330 (DTP/NCI, 2004).
Values joined by “and” are separate entries in the source; they are usually repeats but may differ in a detail not shown here. Identical values can stand only once. Toxic doses and inconclusive results are not listed.

Tested on: P388 leukemia ip, CD2F1 mice, survival T/C
Test: NCI In Vivo Anticancer Drug Screen. Data for tumor model P388 Leukemia (intraperitoneal) in CD2F1 (CDF1) mice
Settings: endpoint: median survival time, higher = longer survival
Summary of the method: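 Mice carrying the transplanted tumor received test compound or vehicle. Survival was recorded in each group, and the value is the treated-group measurement divided by that of the vehicle-treated control group.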

[1] = dose: 100.0 mg/kg/injection, schedule: Q04DX003 (ip), vehicle: saline with Tween-80
[2] = dose: 50.0 mg/kg/injection, schedule: Q01DX005 (ip), vehicle: Klucel (hydroxypropylcellulose) (HPC)
[3] = dose: 100.0 mg/kg/injection, schedule: Q01DX005 (ip), vehicle: Klucel (hydroxypropylcellulose) (HPC)
[4] = dose: 200.0 mg/kg/injection, schedule: Q01DX005 (ip), vehicle: Klucel (hydroxypropylcellulose) (HPC)
[5] = dose: 50.0 mg/kg/injection, schedule: Q01DX009 (ip), vehicle: Klucel (hydroxypropylcellulose) (HPC)
[6] = dose: 100.0 mg/kg/injection, schedule: Q01DX009 (ip), vehicle: Klucel (hydroxypropylcellulose) (HPC)
[7] = dose: 200.0 mg/kg/injection, schedule: Q01DX009 (ip), vehicle: Klucel (hydroxypropylcellulose) (HPC)
[8] = dose: 15.0 mg/kg/injection, schedule: Q01DX005 (ip), vehicle: saline with Tween-80
[9] = dose: 30.0 mg/kg/injection, schedule: Q01DX005 (ip), vehicle: saline with Tween-80
[10] = dose: 60.0 mg/kg/injection, schedule: Q01DX005 (ip), vehicle: saline with Tween-80
[11] = dose: 120.0 mg/kg/injection, schedule: Q01DX005 (ip), vehicle: saline with Tween-80
[12] = dose: 50.0 mg/kg/injection, schedule: Q01DX009 (ip), vehicle: saline with Tween-80
[13] = dose: 100.0 mg/kg/injection, schedule: Q01DX009 (ip), vehicle: saline with Tween-80
[14] = dose: 200.0 mg/kg/injection, schedule: Q01DX009 (ip), vehicle: saline with Tween-80
[15] = dose: 200.0 mg/kg/injection, schedule: Q04DX003 (ip), vehicle: saline with Tween-80
[16] = dose: 400.0 mg/kg/injection, schedule: Q04DX003 (ip), vehicle: saline with Tween-80
[17] = dose: 6.25 mg/kg/injection, schedule: Q01DX009 (ip), vehicle: saline
[18] = dose: 12.5 mg/kg/injection, schedule: Q01DX009 (ip), vehicle: saline

`O=C1c2ccccc2C(=O)N1CCCN1CCOCCOCCN(CCCN2C(=O)c3ccccc3C2=O)CCOCCOCC1` was tested, and the T/C (dose: 25.0 mg/kg/injection, schedule: Q04DX002 (ip), vehicle: saline + Tween-80 + alcohol) was 100 % of control, the T/C (dose: 50.0 mg/kg/injection, schedule: Q04DX002 (ip), vehicle: saline + Tween-80 + alcohol) was 104 % of control and the T/C (dose: 100.0 mg/kg/injection, schedule: Q04DX002 (ip), vehicle: saline + Tween-80 + alcohol) was 102 % of control and 95 % of control.

With `CN(C)C(=O)Nc1cccc(OC(=O)Nc2ccccc2)c1` the T/C (dose: 25.0 mg/kg/injection, schedule: Q04DX003 (ip), vehicle: saline with Tween-80) was 101 % of control, the T/C (dose: 50.0 mg/kg/injection, schedule: Q04DX003 (ip), vehicle: saline with Tween-80) was 101 % of control and the T/C [1] was 90 % of control.

`CCN(CC)P1(=O)OC(c2ccccc2)=CCN1c1ccc(OC)cc1` (stereo unspecified) was tested, and the T/C [2] was 102 % of control, the T/C [3] was 110 % of control and the T/C [4] was 103 % of control.

`CC(=O)Nc1ccc(S(=O)(=O)Oc2noc3ccccc23)cc1` was tested, and the T/C [2] was 108 % of control, the T/C [3] was 96 % of control and the T/C [4] was 102 % of control.

In the case of `CCCCN(C)C12CN3CN(CN(C3)C1)C2`, the T/C [5] is reported as 101 % of control, the T/C [6] is reported as 103 % of control and the T/C [7] is reported as 96 % of control.

In the case of `Cc1cc(N)n2c(nc3ccccc32)c1C#N`, the T/C [8] is reported as 102 % of control, the T/C [9] is reported as 100 % of control and the T/C [10] is reported as 93 % of control and 97 % of control.

In the case of `CC(=O)OC1CCC2C3CCC4=CC(=O)C(C(O)(C(F)(F)F)C(F)(F)F)CC4(C)C3CCC12C` (stereo unspecified), the T/C (dose: 100.0 mg/kg/injection, schedule: Q01DX001 (sc), vehicle: steriod suspending solution) is reported as 100 % of control, the T/C (dose: 200.0 mg/kg/injection, schedule: Q01DX001 (sc), vehicle: steriod suspending solution) is reported as 100 % of control and the T/C (dose: 400.0 mg/kg/injection, schedule: Q01DX001 (sc), vehicle: steriod suspending solution) is reported as 104 % of control.

In the case of `NC(=O)c1ccccc1OC(=O)Nc1ccc(F)cc1`, the T/C [8] is reported as 101 % of control, the T/C [9] is reported as 97 % of control and the T/C [10] is reported as 99 % of control and 103 % of control. For the same molecule, the T/C [11] was 99 % of control.

With `CCCCCCCCCCCCCCCC(=O)O` the T/C [12] was 107 % of control, the T/C [13] was 102 % of control and the T/C [14] was 102 % of control.

`COc1ccc(Br)cc1/C=N/N=C/c1cc(Br)ccc1OC` was tested, and the T/C [1] was 90 % of control, the T/C [15] was 86 % of control and the T/C [16] was 86 % of control.

With `O=C1OC(Oc2ccccc2)c2cc3c(cc21)OCO3` (stereo unspecified) the T/C [10] was 90 % of control, the T/C [11] was 90 % of control and the T/C (dose: 240.0 mg/kg/injection, schedule: Q01DX005 (ip), vehicle: saline with Tween-80) was 99 % of control.

In the case of `CCOC(=O)N1CCc2[nH]oc(=O)c2CC1`, the T/C [17] is reported as 101 % of control and 107 % of control, the T/C [18] is reported as 110 % of control and 95 % of control and the T/C (dose: 25.0 mg/kg/injection, schedule: Q01DX009 (ip), vehicle: saline) is reported as 99 % of control.

In the case of `COc1cc2c(cc1NC(C)=O)C(=O)CCCC2`, the T/C (dose: 100.0 mg/kg/injection, schedule: Q01DX009 (ip), vehicle: saline + alcohol) is reported as 107 % of control, the T/C (dose: 200.0 mg/kg/injection, schedule: Q01DX009 (ip), vehicle: saline + alcohol) is reported as 103 % of control and the T/C (dose: 400.0 mg/kg/injection, schedule: Q01DX009 (ip), vehicle: saline + alcohol) is reported as 110 % of control.

In the case of `CC1=NN(C(=O)c2ccncc2)C(=O)C1N=Nc1ccc(C)cc1` (stereo unspecified), the T/C [12] is reported as 105 % of control, the T/C [13] is reported as 101 % of control and the T/C [14] is reported as 99 % of control.

With `CC1(C)N=C(N)N=C(N)N1c1cccc(CNc2ccc(S(N)(=O)=O)cc2)c1` the T/C (dose: 7.5 mg/kg/injection, schedule: Q01DX005 (ip), vehicle: Klucel (hydroxypropylcellulose) (HPC)) was 102 % of control, the T/C (dose: 15.0 mg/kg/injection, schedule: Q01DX005 (ip), vehicle: Klucel (hydroxypropylcellulose) (HPC)) was 100 % of control and the T/C (dose: 30.0 mg/kg/injection, schedule: Q01DX005 (ip), vehicle: Klucel (hydroxypropylcellulose) (HPC)) was 102 % of control.

For `C[n+]1cccc(C(N)=O)c1`, the T/C (dose: 25.0 mg/kg/injection, schedule: Q01DX009 (ip), vehicle: water) was 102 % of control, the T/C (dose: 50.0 mg/kg/injection, schedule: Q01DX009 (ip), vehicle: water) was 112 % of control and the T/C (dose: 100.0 mg/kg/injection, schedule: Q01DX009 (ip), vehicle: water) was 112 % of control. For the same molecule, the T/C (dose: 200.0 mg/kg/injection, schedule: Q01DX009 (ip), vehicle: water) was 110 % of control and the T/C (dose: 400.0 mg/kg/injection, schedule: Q01DX009 (ip), vehicle: water) was 100 % of control.

With `O=C1CSC(=S)N1c1ccc(N=Nc2ccccc2)cc1` the T/C (dose: 50.0 mg/kg/injection, schedule: Q01DX009 (ip), vehicle: saline) was 98 % of control, the T/C (dose: 100.0 mg/kg/injection, schedule: Q01DX009 (ip), vehicle: saline) was 99 % of control and the T/C (dose: 200.0 mg/kg/injection, schedule: Q01DX009 (ip), vehicle: saline) was 86 % of control.

`COc1ccc(C(Cl)(c2ccccc2)c2ccc(C(C)=O)cc2)cc1` (stereo unspecified) was tested, and the T/C [8] was 107 % of control, the T/C [9] was 101 % of control and the T/C [10] was 88 % of control and 97 % of control.

With `COC(=O)C1c2cc3c(c(O)c2CCC1(C)O)C(=O)c1c(O)cc2c(c1C3=O)OC1OC2(C)C(O)C(N(C)C)C1O` (stereo unspecified) the T/C [17] was 117 % of control, the T/C [18] was 120 % of control and the T/C (dose: 25.0 mg/kg/injection, schedule: Q04DX003 (ip), vehicle: saline) was 115 % of control. For the same molecule, the T/C (dose: 50.0 mg/kg/injection, schedule: Q04DX003 (ip), vehicle: saline) was 114 % of control and the T/C (dose: 100.0 mg/kg/injection, schedule: Q04DX003 (ip), vehicle: saline) was 115 % of control.

For `C/C(=N\NC(=S)N1CC2CCC(CC2)C1)c1nccs1`, the T/C (dose: 12.5 mg/kg/injection, schedule: Q01DX005 (ip), vehicle: saline with Tween-80) was 124 % of control and the T/C (dose: 50.0 mg/kg/injection, schedule: Q01DX005 (ip), vehicle: saline with Tween-80) was 154 % of control.

For `CCOC(=O)Cn1cnc2cc(Cl)c([N+](=O)[O-])cc2c1=O`, the T/C (dose: 100.0 mg/kg/injection, schedule: Q04DX003 (ip), vehicle: Klucel (hydroxypropylcellulose) (HPC)) was 100 % of control and 110 % of control, the T/C (dose: 200.0 mg/kg/injection, schedule: Q04DX003 (ip), vehicle: Klucel (hydroxypropylcellulose) (HPC)) was 101 % of control and 121 % of control and the T/C (dose: 400.0 mg/kg/injection, schedule: Q04DX003 (ip), vehicle: Klucel (hydroxypropylcellulose) (HPC)) was 100 % of control. For the same molecule, the T/C (dose: 600.0 mg/kg/injection, schedule: Q04DX003 (ip), vehicle: Klucel (hydroxypropylcellulose) (HPC)) was 107 % of control.

With `NC(CC(=O)c1ccc(O)cc1)C(=O)O` (stereo unspecified) the T/C [5] was 99 % of control, the T/C [6] was 100 % of control and the T/C [7] was 92 % of control.

In the case of `CC(=O)COc1ccccc1NC(C)=O`, the T/C [1] is reported as 109 % of control, the T/C [15] is reported as 90 % of control and the T/C [16] is reported as 100 % of control.

`Cc1nc2nc(O)c(Cc3ccccc3)c(=O)n2nc1C` was tested, and the T/C [2] was 95 % of control, the T/C [3] was 93 % of control and the T/C [4] was 95 % of control.

With `C=C1NC(=O)C(N)=C1C(C)=O` the T/C [10] was 100 % of control and the T/C [11] was 104 % of control.

In the case of `CN(C)c1ccc(/[N+]([O-])=N/N2C(=O)c3ccccc3C2=O)cc1`, the T/C (dose: 25.0 mg/kg/injection, schedule: Q01DX005 (ip), vehicle: Klucel (hydroxypropylcellulose) (HPC)) is reported as 105 % of control, the T/C [2] is reported as 97 % of control and the T/C [3] is reported as 101 % of control. For the same molecule, the T/C [4] was 110 % of control.

In the case of `Cc1ccc(/C=C/[N+](=O)[O-])cc1`, the T/C (dose: 6.25 mg/kg/injection, schedule: Q01DX009 (ip), vehicle: saline sonified) is reported as 100 % of control, the T/C (dose: 12.5 mg/kg/injection, schedule: Q01DX009 (ip), vehicle: saline sonified) is reported as 100 % of control and the T/C (dose: 25.0 mg/kg/injection, schedule: Q01DX009 (ip), vehicle: saline sonified) is reported as 100 % of control.

`O=C1c2ccccc2SCC12OC2c1ccc(Cl)cc1` (stereo unspecified) was tested, and the T/C (dose: 100.0 mg/kg/injection, schedule: Q04DX002 (ip), vehicle: saline with Tween-80) was 95 % of control and the T/C (dose: 200.0 mg/kg/injection, schedule: Q04DX002 (ip), vehicle: saline with Tween-80) was 90 % of control.

For `COc1cc2c(cc1O)NC(OC)C1CC(O)CN1C2=O` (stereo unspecified), the T/C (dose: 1.0 mg/kg/injection, schedule: Q01DX005 (ip), vehicle: saline with Tween-80) was 121 % of control, the T/C (dose: 2.0 mg/kg/injection, schedule: Q01DX005 (ip), vehicle: saline with Tween-80) was 119 % of control and the T/C (dose: 16.0 mg/kg/injection, schedule: Q01DX005 (ip), vehicle: saline with Tween-80) was 161 % of control.
